Results: ChEMBL document CHEMBL1944578, “Synthesis and anticonvulsant activity of novel 2,6-diketopiperazine derivatives. Part 2: Perhydropyrido[1,2-a]pyrazines” (Eur J Med Chem, 2012)
Active and inactive are the calls of the source. The rule behind the calls is not given here.

Experiments:
Rattus norvegicus [1] = experiment: Neurotoxicity in Sprague-Dawley rat assessed as neurological impairment at 30 mg/kg, po measured after 1 hr; assay type: toxicity, organism-based; design: dose 30 mg/kg, route oral; conditions: in vivo
Rattus norvegicus [2] = experiment: Anticonvulsant activity in Sprague-Dawley rat assessed as protection against maximum electroshock at 30 mg/kg, po measured after 0.5 hrs; assay type: functional, organism-based; design: dose 30 mg/kg
Rattus norvegicus [3] = experiment: Neurotoxicity in Sprague-Dawley rat assessed as neurological impairment at 30 mg/kg, po measured after 0.5 hrs; assay type: toxicity, organism-based; design: dose 30 mg/kg, route oral; conditions: in vivo
Rattus norvegicus [4] = experiment: Toxicity in Sprague-Dawley rat assessed as mortality at 600 mg/kg, ip measured after 0.5 hrs; assay type: organism-based; design: dose 600 mg/kg, route intraperitoneal; conditions: in vivo
Mus musculus [5] = experiment: Anticonvulsant activity in Carworth farms No.1 albino mouse assessed as protection against maximum electroshock at 30 mg/kg, ip measured after 4 hrs; assay type: functional, organism-based; design: dose 30 mg/kg
Mus musculus [6] = experiment: Anticonvulsant activity in Carworth farms No.1 albino mouse assessed as protection against 6 Hz electric current-induced seizure at 100 mg/kg, ip measured after 1 hrs; assay type: functional, organism-based; design: dose 100 mg/kg
Mus musculus [7] = experiment: Neurotoxicity in Carworth farms No.1 albino mouse assessed as neurological impairment at 300 mg/kg, ip measured after 4 hrs; assay type: toxicity, organism-based; design: dose 300 mg/kg, route intraperitoneal; conditions: in vivo
Mus musculus [8] = experiment: Anticonvulsant activity in ip dosed Carworth farms No.1 albino mouse assessed as protection against subcutaneous metrazole-induced seizures; assay type: functional
Mus musculus [9] = experiment: Anticonvulsant activity in Carworth farms No.1 albino mouse assessed as protection against maximum electroshock at 100 mg/kg, ip measured after 4 hrs; assay type: functional, organism-based; design: dose 100 mg/kg
Mus musculus [10] = experiment: Neurotoxicity in Carworth farms No.1 albino mouse assessed as neurological impairment at 30 mg/kg, ip measured after 0.5 hrs; assay type: toxicity, organism-based; design: dose 30 mg/kg, route intraperitoneal; conditions: in vivo
Rattus norvegicus [11] = experiment: Anticonvulsant activity in Sprague-Dawley rat assessed as protection against maximum electroshock at 30 mg/kg, po measured after 4 hrs; assay type: functional, organism-based; design: dose 30 mg/kg
Mus musculus [12] = experiment: Anticonvulsant activity in Carworth farms No.1 albino mouse assessed as protection against subcutaneous metrazole-induced seizures at 100 mg/kg, ip measured after 0.5 hrs; assay type: functional, organism-based; design: dose 100 mg/kg
Mus musculus [13] = experiment: Anticonvulsant activity in Carworth farms No.1 albino mouse assessed as protection against maximum electroshock at 30 mg/kg, ip measured after 0.5 hrs; assay type: functional, organism-based; design: dose 30 mg/kg
Mus musculus [14] = experiment: Anticonvulsant activity in Carworth farms No.1 albino mouse assessed as protection against subcutaneous metrazole-induced seizures at 300 mg/kg, ip measured after 0.5 hrs; assay type: functional, organism-based; design: dose 300 mg/kg
Rattus norvegicus [15] = experiment: Neurotoxicity in Sprague-Dawley rat assessed as neurological impairment at 30 mg/kg, po measured after 2 hrs; assay type: toxicity, organism-based; design: dose 30 mg/kg, route oral; conditions: in vivo
Mus musculus [16] = experiment: Neurotoxicity in Carworth farms No.1 albino mouse assessed as neurological impairment at 100 mg/kg, ip measured after 4 hrs; assay type: toxicity, organism-based; design: dose 100 mg/kg, route intraperitoneal; conditions: in vivo
Rattus norvegicus [17] = experiment: Toxicity in Sprague-Dawley rat assessed as body weight change in protected animals at 600 mg/kg, ip measured after 0.5 hrs; assay type: organism-based; design: dose 600 mg/kg, route intraperitoneal; conditions: in vivo
Rattus norvegicus [18] = experiment: Anticonvulsant activity in Sprague-Dawley rat assessed as protection against maximum electroshock at 30 mg/kg, po measured after 0.25 hrs; assay type: functional, organism-based; design: dose 30 mg/kg
Mus musculus [19] = experiment: Anticonvulsant activity in Carworth farms No.1 albino mouse assessed as protection against 6 Hz electric current-induced seizure at 100 mg/kg, ip measured after 2 hrs; assay type: functional, organism-based; design: dose 100 mg/kg
Mus musculus [20] = experiment: Neurotoxicity in Carworth farms No.1 albino mouse assessed as neurological impairment at 30 mg/kg, ip measured after 4 hrs; assay type: toxicity, organism-based; design: dose 30 mg/kg, route intraperitoneal; conditions: in vivo
Rattus norvegicus [21] = experiment: Anticonvulsant activity in Sprague-Dawley rat assessed as protection against maximum electroshock at 30 mg/kg, po measured after 2 hrs; assay type: functional, organism-based; design: dose 30 mg/kg
Mus musculus [22] = experiment: Neurotoxicity in Carworth farms No.1 albino mouse assessed as neurological impairment at 100 mg/kg, ip measured after 1 hr; assay type: toxicity, organism-based; design: dose 100 mg/kg, route intraperitoneal; conditions: in vivo
Mus musculus [23] = experiment: Anticonvulsant activity in Carworth farms No.1 albino mouse assessed as protection against subcutaneous metrazole-induced seizures at 30 mg/kg, ip measured after 4 hrs; assay type: functional, organism-based; design: dose 30 mg/kg
Mus musculus [24] = experiment: Neurotoxicity in Carworth farms No.1 albino mouse assessed as neurological impairment at 100 mg/kg, ip measured after 2 hr; assay type: toxicity, organism-based; design: dose 100 mg/kg, route intraperitoneal; conditions: in vivo
Rattus norvegicus [25] = experiment: Neurotoxicity in Sprague-Dawley rat assessed as neurological impairment at 30 mg/kg, po measured after 4 hrs; assay type: toxicity, organism-based; design: dose 30 mg/kg, route oral; conditions: in vivo
Mus musculus [26] = experiment: Anticonvulsant activity in ip dosed Carworth farms No.1 albino mouse assessed as protection against 6 Hz electric current-induced seizure measured after 0.25 hrs; assay type: functional
Mus musculus [27] = experiment: Neurotoxicity in Carworth farms No.1 albino mouse assessed as neurological impairment at 100 mg/kg, ip measured after 0.25 hrs; assay type: toxicity, organism-based; design: dose 100 mg/kg, route intraperitoneal; conditions: in vivo
Mus musculus [28] = species on record: Mus musculus; experiment: Anticonvulsant activity in electric shock-induced Carworth farms No.1 albino mouse assessed as time of peak effect; assay type: functional
[29] = Neurotoxicity in ip dosed Carworth farms No.1 albino mouse assessed as inability to grasp rotarod measured after 0.25 hrs; assay type: toxicity, organism-based; conditions: in vivo
Mus musculus [30] = experiment: Neurotoxicity in Carworth farms No.1 albino mouse assessed as inability to grasp rotarod at 300 mg/kg, ip measured after 0.5 hrs; assay type: toxicity, organism-based; design: dose 300 mg/kg, route intraperitoneal; conditions: in vivo
Rattus norvegicus [31] = experiment: Toxicity in Sprague-Dawley rat assessed as body weight change in unprotected animal at 600 mg/kg, ip measured after 0.5 hrs; assay type: organism-based; design: dose 600 mg/kg, route intraperitoneal; conditions: in vivo
Mus musculus [32] = experiment: Anticonvulsant activity in Carworth farms No.1 albino mouse assessed as protection against 6 Hz electric current-induced seizure at 100 mg/kg, ip measured after 4 hrs; assay type: functional, organism-based; design: dose 100 mg/kg
Mus musculus [33] = experiment: Anticonvulsant activity in Carworth farms No.1 albino mouse assessed as protection against maximum electroshock at 100 mg/kg, ip measured after 0.5 hrs; assay type: functional, organism-based; design: dose 100 mg/kg
Mus musculus [34] = experiment: Anticonvulsant activity in Carworth farms No.1 albino mouse assessed as protection against maximum electroshock at 300 mg/kg, ip measured after 0.5 hrs; assay type: functional, organism-based; design: dose 300 mg/kg
Rattus norvegicus [35] = experiment: Anticonvulsant activity in Sprague-Dawley rat assessed as protection against pilocarpine-induced status at 600 mg/kg, ip measured after 0.5 hrs; assay type: functional, organism-based; design: dose 600 mg/kg
Rattus norvegicus [36] = experiment: Neurotoxicity in Sprague-Dawley rat assessed as neurological impairment at 30 mg/kg, po measured after 0.25 hrs; assay type: toxicity, organism-based; design: dose 30 mg/kg, route oral; conditions: in vivo
Rattus norvegicus [37] = experiment: Anticonvulsant activity in Sprague-Dawley rat assessed as protection against maximum electroshock at 30 mg/kg, po measured after 1 hr; assay type: functional, organism-based; design: dose 30 mg/kg
Mus musculus [38] = experiment: Anticonvulsant activity in ip dosed Carworth farms No.1 albino mouse assessed as protection against maximum electroshock; assay type: functional
Mus musculus [39] = experiment: Anticonvulsant activity in Carworth farms No.1 albino mouse assessed as protection against subcutaneous metrazole-induced seizures at 100 mg/kg, ip measured after 4 hrs; assay type: functional, organism-based; design: dose 100 mg/kg
Mus musculus [40] = experiment: Anticonvulsant activity in Carworth farms No.1 albino mouse assessed as protection against 6 Hz electric current-induced seizure at 100 mg/kg, ip measured after 0.5 hrs; assay type: functional, organism-based; design: dose 100 mg/kg
Mus musculus [41] = experiment: Anticonvulsant activity in Carworth farms No.1 albino mouse assessed as protection against subcutaneous metrazole-induced seizures at 30 mg/kg, ip measured after 0.5 hrs; assay type: functional, organism-based; design: dose 30 mg/kg
Mus musculus [42] = experiment: Anticonvulsant activity in Carworth farms No.1 albino mouse assessed as protection against subcutaneous metrazole-induced seizures at 300 mg/kg, ip measured after 4 hrs; assay type: functional, organism-based; design: dose 300 mg/kg
Mus musculus [43] = experiment: Anticonvulsant activity in Carworth farms No.1 albino mouse assessed as protection against maximum electroshock at 300 mg/kg, ip measured after 4 hrs; assay type: functional, organism-based; design: dose 300 mg/kg
Mus musculus [44] = species on record: Mus musculus; experiment: Anticonvulsant activity in maximum electroshock-induced Carworth farms No.1 albino mouse assessed as time of peak effect; assay type: functional
Mus musculus [45] = experiment: Neurotoxicity in Carworth farms No.1 albino mouse assessed as neurological impairment at 100 mg/kg, ip measured after 0.5 hrs; assay type: toxicity, organism-based; design: dose 100 mg/kg, route intraperitoneal; conditions: in vivo
Mus musculus [46] = experiment: Anticonvulsant activity in Carworth farms No.1 albino mouse assessed as protection against 6 Hz electric current-induced seizure at 100 mg/kg, ip measured after 0.25 hrs; assay type: functional, organism-based; design: dose 100 mg/kg

O=C1NC(=O)[C@H](c2ccccc2)N2CCCC[C@H]12
Activity (Rattus norvegicus [1]): Non-toxic
Activity (Rattus norvegicus [2]): inactive
Activity (Rattus norvegicus [3]): Non-toxic
Activity (Rattus norvegicus [4]): Toxic
Activity (Mus musculus [5]): inactive
Activity (Mus musculus [6]): inactive
Activity (Mus musculus [7]): Non-toxic
ED50 (Mus musculus [8]): 99.2 mg/kg
Activity (Mus musculus [9]): inactive
Activity (Mus musculus [10]): Non-toxic
Activity (Rattus norvegicus [11]): inactive
Activity (Mus musculus [12]): inactive
Activity (Mus musculus [13]): inactive
Activity (Mus musculus [14]): Active
Activity (Rattus norvegicus [15]): Non-toxic
Activity (Mus musculus [16]): Non-toxic
Activity (Rattus norvegicus [17]): -30 g
Activity (Rattus norvegicus [18]): inactive
Activity (Mus musculus [19]): inactive
Activity (Mus musculus [20]): Non-toxic
Activity (Rattus norvegicus [21]): inactive
Activity (Mus musculus [22]): Non-toxic
Activity (Mus musculus [23]): inactive
Activity (Mus musculus [24]): Non-toxic
Activity (Rattus norvegicus [25]): Non-toxic
ED50 (Mus musculus [26]): 32.3 mg/kg
Activity (Mus musculus [27]): Non-toxic
Time (Mus musculus [28]): 0.25 h
TD50 at 0.25 h [29]: 151 mg/kg
Activity (Mus musculus [30]): Toxic
Activity (Rattus norvegicus [31]): -31 g
Activity (Mus musculus [32]): inactive
Activity (Mus musculus [33]): Active
Activity (Mus musculus [34]): Active
Activity (Rattus norvegicus [35]): inactive
Activity (Rattus norvegicus [36]): Non-toxic
Activity (Rattus norvegicus [37]): inactive
ED50 (Mus musculus [38]): 95.7 mg/kg
Activity (Mus musculus [39]): inactive
Activity (Mus musculus [40]): Active
Activity (Mus musculus [41]): inactive
Activity (Mus musculus [42]): inactive
Activity (Mus musculus [43]): inactive
Time (Mus musculus [44]): 0.5 h
Activity (Mus musculus [45]): Toxic
Activity (Mus musculus [46]): Active
